Laboratory results as given in patent US20070275935A1, “Estratriene Derivatives” (priority 2003, published 2007).

Legend:
[1] = test system: bovine aortic vascular smooth muscle; assay: bFGF-induced proliferation of bovine aortic vascular smooth muscle; type: cell-based; conditions: 3 μM
Protocol: Experiments were also carried out with bovine aortic vascular smooth muscle with a more limited set of compounds.

[2] = biological target: T1, Estrogen Receptor (ER) (Rattus norvegicus, UniProt P06211); assay: Estrogen receptor binding assay, 3H-estradiol displacement from rat uterine cytosol; conditions: for ER affinity (pIC50 ^3H-E2 displacement): rat uterine cytosol, 0.2 nM [3H]-E2, tested up to 10 μM; for displacement of ^3H-Estradiol, in words: concentrations up to 10 μM; for IC50: read-out: ER-RLB pIC50 (converted)
T1 construct: using rat uterine cytosol as a source of ER; from tissue; host or cells: rat uterus, cytosol fraction (30000 x g supernatant)
T1 sequence (P06211 1-600): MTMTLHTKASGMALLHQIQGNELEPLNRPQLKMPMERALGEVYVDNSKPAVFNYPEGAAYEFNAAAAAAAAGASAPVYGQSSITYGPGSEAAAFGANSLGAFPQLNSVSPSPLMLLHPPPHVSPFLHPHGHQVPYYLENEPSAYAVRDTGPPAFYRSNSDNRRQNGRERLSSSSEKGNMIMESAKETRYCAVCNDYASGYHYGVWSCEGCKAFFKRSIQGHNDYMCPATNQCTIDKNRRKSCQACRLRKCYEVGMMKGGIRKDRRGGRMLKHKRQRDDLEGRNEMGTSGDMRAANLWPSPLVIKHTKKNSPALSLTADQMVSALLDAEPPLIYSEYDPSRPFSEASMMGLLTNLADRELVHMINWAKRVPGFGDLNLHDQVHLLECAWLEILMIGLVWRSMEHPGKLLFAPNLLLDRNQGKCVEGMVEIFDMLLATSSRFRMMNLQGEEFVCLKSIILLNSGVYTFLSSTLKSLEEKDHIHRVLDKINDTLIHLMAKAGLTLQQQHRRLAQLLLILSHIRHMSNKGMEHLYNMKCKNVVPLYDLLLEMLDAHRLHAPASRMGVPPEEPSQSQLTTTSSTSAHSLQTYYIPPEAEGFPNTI
In short: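 Cytosol from Brown Norway rat uteri, homogenised in 10 mM Tris pH 7.4 with EDTA, glycerol and PMSF, spun at 30000×g, diluted to about 1 mg/ml protein.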

[3] = test system: Human airway smooth muscle (HASM) cells; assay: bFGF-induced proliferation of human airway smooth muscle (HASM) cells, cell number after 48 h; type: cell-based; conditions: bFGF 300 pM, mean ± SEM (n), without analogue 135.8 ± 3.7
Protocol: Human airway smooth muscle (HASM) cells were cultured from macroscopically normal bronchi (0.5-2 cm diameter) obtained from lung resection or heart-lung transplant specimens provided by the Alfred Hospital (Melbourne) according to methods published in detail previously (Fernandes et al., 1999).
Approximately 0.1 g of smooth muscle was stripped from the wall of the bronchus for each cell culture. Dissected tissue was immersed in Dulbecco's modified Eagle's medium (DMEM) (Flow Laboratories, Scotland), supplemented with 100 U/mL penicillin G (CSL, Australia) and 100 ug/mL streptomycin (CSL, Australia). The tissue was rinsed in phosphate buffered saline (PBS; Oxoid, England) and the airway smooth muscle was chopped into 2 mm^3 pieces and digested for 2 hours in DMEM containing elastase (0.5 mg/mL: Worthington Biochemical, USA) followed by a 12 hour incubation in DMEM containing collagenase (1 mg/mL) (Worthington Biochemical, USA), at 37° C. with agitation.
The resulting cell suspension was centrifuged and washed three times in phosphate buffered saline (PBS). Following the last centrifugation step, the cells were resuspended in 25 mL of DMEM supplemented with L-glutamine (2 mM: Sigma, USA), penicillin G (100 U/mL), streptomycin (100 μg/mL), amphotericin B (2 μg/mL: Wellcome, UK) and heat-inactivated FCS (10% v/v: CSL, Australia) and seeded into 25 cm^2 culture flasks. The primary isolates were incubated for 7 to 14 days to reach confluence.
Cells were harvested weekly by 10 min exposure to trypsin (0.5%: CSL, Australia) and EDTA (1 mM in PBS: BDH, Australia) and passaged at a 1:3 ratio into 75 cm^2 flasks.
The activity of the compounds has been established in cell culture by exploring their effects on mitogen-induced increases in cell number. […]
Data are expressed as a percentage of the cell number in vehicle treated wells and are presented as the mean and standard error of the mean.

[4] = test system: GM-CSF production by Human Airway Smooth Muscle Cells; assay: Interleukin-1α-mediated GM-CSF production by HASM cells (ELISA); type: cell-based; conditions: for HASM - GM-CSF: inhibition of interleukin-1α (1 ng/ml)-mediated GM-CSF production, concentration not given, * not defined
[5] = test system: NIH3T3 cells; assay: Thrombin-induced proliferation of NIH3T3 cells; type: cell-based; conditions: concentration not given
[6] = test system: Airway fibroblasts; assay: bFGF-induced proliferation of airway fibroblasts from airway biopsies; type: cell-based; conditions: 3 μM
Source text: Airway fibroblasts were also obtained by explant culture from airway biopsies.

[7] = 3H-estradiol displacement, cytosolic preparations of rat uterus, pIC50 of 4.00 = inactive

## COc1cc2c(cc1O)CC[C@@H]1[C@@H]2CC[C@]2(C)[C@@H](O)CC[C@@H]12 [2-methoxyestradiol, reference compound]
[1]
  reduction of bFGF (300 pM) induced proliferation: 87±6%
[2]
  ER affinity (pIC50 ^3H-E2 displacement): 6.8
[3]; analogue 10 μM
  Cell number (% control) bFGF: 87.5 ± 13.8 (4) % control
[4]
  HASM - GM-CSF: 29 ± 10*

## COc1cc2c(cc1O)C(=NOCc1ccc([N+](=O)[O-])cc1)C[C@@H]1[C@@H]2CC[C@]2(C)[C@@H](O)CC[C@@H]12 [CP-DM-2-11-7, 2-methoxy-6-(4-nitrobenzyloxy)iminoestradiol]
[5]
  inhibitory effect on thrombin-induced proliferation: 26±12%
[1]
  reduction of bFGF (300 pM) induced proliferation: 75±14%
[6]
  reduction of bFGF (300 pM) induced proliferation: 55±20%
[2]
  displacement of ^3H-Estradiol, in words: little or no detectable displacement
  ER affinity (pIC50 ^3H-E2 displacement): <5.0
[3]; analogue 1 μM
  Cell number (% control) bFGF: 116.6 ± 6.6 (14) % control
[4]
  HASM - GM-CSF: 45 ± 8*
[4]; interleukin-1α 1 ng/ml
  reduction of GM-CSF production, in words (FIG. 7): reduced GM-CSF production to greater extent than 2MEO

## COc1cc2c(cc1O)C(=NOCc1ccc([N+](=O)[O-])cc1)C[C@@H]1[C@@H]2CC[C@]2(C)C(=NO)CC[C@@H]12 [CP-DM-3-91, 2-methoxy-6-(4-nitrobenzyloxy)iminoestrone-17-oxime]
[5]
  inhibitory effect on thrombin-induced proliferation: 68±10%
[1]
  reduction of bFGF (300 pM) induced proliferation: 93±4%
[6]
  reduction of bFGF (300 pM) induced proliferation: 50±24%
[2]; [7]
  ER-RLB pIC50: 4.26
[2]
  displacement of ^3H-Estradiol, in words: little or no detectable displacement
  ER affinity (pIC50 ^3H-E2 displacement): <5.0
[3]; analogue 1 μM
  Cell number (% control) bFGF: 111.1 ± 10.9 (4) % control
[4]
  HASM - GM-CSF: 43 ± 11*

## C[C@]12CC[C@@H]3c4ccc(O)cc4CC[C@H]3[C@@H]1CC/C2=N\OCc1cccc([N+](=O)[O-])c1 [CP-DM-3-102, estrone-17-(3-nitrobenzyl)oxime]
[2]; [7]
  IC50: 2.4 µM

## COc1cc2c(cc1O)/C(=N/OCc1cc(F)cc(F)c1)C[C@@H]1[C@@H]2CC[C@]2(C)[C@@H](O)CC[C@@H]12 [CP-DM-4-35, 6-(3,5-difluorobenzyloxy)imino-2-methoxyestradiol]
[2]; [7]
  IC50: 5.25 µM

## COc1cc2c(cc1O)/C(=N/OCc1ccc(SC(F)(F)F)cc1)C[C@@H]1[C@@H]2CC[C@]2(C)[C@@H](O)CC[C@@H]12 [CP-DM-4-65, 2-methoxy-6-(4-trifluoromethylthiobenzyloxy)iminoestradiol]
[2]; [7]
  IC50: 0.646 µM
[4]
  HASM - GM-CSF: 28 ± 31
